Key:
TMD8 [1] = assay: Induction of apoptosis in human TMD8 cells assessed as early apoptotic cells at 10 uM measured after 48 hrs by annexin-V/FITC and PI staining based flow cytometry analysis (reference value: 9.15%); assay type: functional
TMD8 [2] = assay: Induction of apoptosis in human TMD8 cells assessed as late apoptotic cells at 5 uM measured after 48 hrs by annexin-V/FITC and PI staining based flow cytometry analysis (reference value: 5.13%); assay type: functional
THP-1 = assay: Antiproliferative activity against human THP-1 cells assessed as inhibition of cell viability measured after 72 hrs by MTT assay; assay type: functional, cell-based; details: THP-1, 72 h
[3] = target: DNA (cytosine-5)-methyltransferase 1 (Homo sapiens, UniProt P26358); assay: Inhibition of DNMT1 (unknown origin) at 5 uM preincubated for 15 mins followed by substrate and [3H-SAM] addition and measured after 60 mins by microbeta analysis relative to control; details: time 75.0 min
Chain of DNA (cytosine-5)-methyltransferase 1 (P26358 whole entry): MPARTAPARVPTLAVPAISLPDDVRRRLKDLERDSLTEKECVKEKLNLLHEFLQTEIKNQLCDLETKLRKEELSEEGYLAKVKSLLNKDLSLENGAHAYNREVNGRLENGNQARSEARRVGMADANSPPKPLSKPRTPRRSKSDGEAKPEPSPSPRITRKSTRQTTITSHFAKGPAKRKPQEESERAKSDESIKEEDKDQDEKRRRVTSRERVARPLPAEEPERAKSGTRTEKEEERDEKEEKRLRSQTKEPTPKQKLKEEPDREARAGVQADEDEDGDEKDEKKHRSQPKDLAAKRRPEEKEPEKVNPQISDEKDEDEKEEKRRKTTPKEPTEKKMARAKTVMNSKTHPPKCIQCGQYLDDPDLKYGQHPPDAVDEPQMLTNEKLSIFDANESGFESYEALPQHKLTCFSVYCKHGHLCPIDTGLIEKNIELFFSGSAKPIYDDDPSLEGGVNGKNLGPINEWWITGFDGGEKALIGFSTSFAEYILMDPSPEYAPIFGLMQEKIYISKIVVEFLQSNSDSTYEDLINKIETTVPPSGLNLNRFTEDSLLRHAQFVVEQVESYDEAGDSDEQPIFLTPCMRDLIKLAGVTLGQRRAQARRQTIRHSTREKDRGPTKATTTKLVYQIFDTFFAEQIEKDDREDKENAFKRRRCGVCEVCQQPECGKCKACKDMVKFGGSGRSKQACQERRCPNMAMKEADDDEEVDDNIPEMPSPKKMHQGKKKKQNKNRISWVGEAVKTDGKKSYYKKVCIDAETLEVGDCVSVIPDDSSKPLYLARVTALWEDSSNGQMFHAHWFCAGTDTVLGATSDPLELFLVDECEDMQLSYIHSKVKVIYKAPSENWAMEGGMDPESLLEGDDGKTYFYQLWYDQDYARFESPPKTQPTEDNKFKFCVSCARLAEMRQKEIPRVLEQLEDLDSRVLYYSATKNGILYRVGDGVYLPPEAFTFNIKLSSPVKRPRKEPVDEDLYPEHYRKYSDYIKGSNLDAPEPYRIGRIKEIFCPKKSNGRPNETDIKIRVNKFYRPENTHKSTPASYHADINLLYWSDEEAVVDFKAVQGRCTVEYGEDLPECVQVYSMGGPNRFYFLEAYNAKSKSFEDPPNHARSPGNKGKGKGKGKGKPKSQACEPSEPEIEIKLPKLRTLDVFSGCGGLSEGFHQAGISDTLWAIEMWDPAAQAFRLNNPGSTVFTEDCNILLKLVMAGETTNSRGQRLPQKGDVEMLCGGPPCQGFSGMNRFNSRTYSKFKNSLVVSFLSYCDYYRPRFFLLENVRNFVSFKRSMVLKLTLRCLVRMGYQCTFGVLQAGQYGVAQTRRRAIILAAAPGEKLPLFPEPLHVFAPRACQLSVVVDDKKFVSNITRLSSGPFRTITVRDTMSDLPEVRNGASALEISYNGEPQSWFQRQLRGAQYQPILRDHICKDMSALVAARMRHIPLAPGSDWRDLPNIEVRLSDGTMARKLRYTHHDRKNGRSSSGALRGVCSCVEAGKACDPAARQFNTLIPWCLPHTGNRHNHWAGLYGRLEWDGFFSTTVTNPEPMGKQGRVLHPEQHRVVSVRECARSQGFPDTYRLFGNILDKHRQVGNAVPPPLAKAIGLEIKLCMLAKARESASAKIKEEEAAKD

[4] = Antitumor activity against human TMD8 cells harbouring […] xenografted in mouse model assessed as tumor inhibition rate at 10 mg/kg, iv administered three times a week relative to control; assay type: functional; parameters: scale not given: the % may be the effect or the level left
Jurkat = assay: Antiproliferative activity against human Jurkat cells assessed as inhibition of cell viability measured after 72 hrs by MTT assay; assay type: functional, cell-based
[5] = target: T1, Histone-lysine N-methyltransferase EHMT2 (Homo sapiens, UniProt Q96KQ7); assay: Inhibition of G9a (unknown origin) preincubated for 15 mins followed by substrate and [3H-SAM] addition and measured after 60 mins by microbeta analysis
T1 sequence (Q96KQ7 whole entry): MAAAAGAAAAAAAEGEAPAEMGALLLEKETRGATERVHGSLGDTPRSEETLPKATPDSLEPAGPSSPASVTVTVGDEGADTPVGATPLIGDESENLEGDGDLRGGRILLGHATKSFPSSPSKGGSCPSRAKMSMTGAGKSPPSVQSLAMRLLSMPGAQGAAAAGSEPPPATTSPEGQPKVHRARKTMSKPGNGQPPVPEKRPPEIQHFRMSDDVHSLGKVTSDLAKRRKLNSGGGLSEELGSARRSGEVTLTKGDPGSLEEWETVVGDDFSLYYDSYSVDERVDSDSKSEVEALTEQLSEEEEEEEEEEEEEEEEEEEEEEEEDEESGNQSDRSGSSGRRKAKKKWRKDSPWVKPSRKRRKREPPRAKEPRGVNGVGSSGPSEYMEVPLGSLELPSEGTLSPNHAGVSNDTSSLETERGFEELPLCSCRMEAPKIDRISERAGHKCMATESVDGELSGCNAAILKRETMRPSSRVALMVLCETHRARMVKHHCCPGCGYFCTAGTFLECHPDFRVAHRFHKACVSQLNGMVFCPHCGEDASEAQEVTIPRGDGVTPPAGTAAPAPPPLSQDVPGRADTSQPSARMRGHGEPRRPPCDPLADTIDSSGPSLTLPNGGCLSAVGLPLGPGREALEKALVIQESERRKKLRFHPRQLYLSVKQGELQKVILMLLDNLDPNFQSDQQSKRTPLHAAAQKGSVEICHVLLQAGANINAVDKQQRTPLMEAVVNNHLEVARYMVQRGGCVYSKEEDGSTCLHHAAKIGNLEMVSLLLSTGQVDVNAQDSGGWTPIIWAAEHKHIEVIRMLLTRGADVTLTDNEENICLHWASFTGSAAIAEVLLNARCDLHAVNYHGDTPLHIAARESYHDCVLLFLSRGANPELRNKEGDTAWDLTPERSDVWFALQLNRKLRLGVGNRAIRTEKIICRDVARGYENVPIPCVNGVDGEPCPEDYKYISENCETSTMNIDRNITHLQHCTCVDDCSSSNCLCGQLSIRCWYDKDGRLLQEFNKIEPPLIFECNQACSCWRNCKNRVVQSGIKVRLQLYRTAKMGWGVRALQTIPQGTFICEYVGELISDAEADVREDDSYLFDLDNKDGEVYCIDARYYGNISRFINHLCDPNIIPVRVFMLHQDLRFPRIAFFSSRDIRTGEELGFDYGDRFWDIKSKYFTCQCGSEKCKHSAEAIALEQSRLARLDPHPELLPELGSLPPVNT

HCT-116 = assay: Antiproliferative activity against human HCT-116 cells assessed as inhibition of cell viability measured after 72 hrs by MTT assay; assay type: functional, cell-based; details: HCT-116, 72 h
U2932 = assay: Antiproliferative activity against human U2932 cells assessed as inhibition of cell viability measured after 72 hrs by MTT assay; assay type: functional, cell-based; details: U2932, 72 h
DOHH-2 = assay: Induction of apoptosis in human DOHH-2 cells assessed as early apoptotic cells at 1 uM measured after 48 hrs by annexin-V/FITC and PI staining based flow cytometry analysis (reference value: 5.69%); assay type: functional
TMD8 [6] = assay: Induction of apoptosis in human TMD8 cells assessed as late apoptotic cells measured after 48 hrs by annexin-V/FITC and PI staining based flow cytometry analysis; assay type: functional, cell-based; details: dose 1-10 µM
[7] = Subacute toxicity in Balb/C mouse assessed as effect on platelet at 30 mg/kg, iv administered three times in a week for 2 weeks; assay type: organism-based; details: in vivo, 336 h
TMD8 [8] = assay: Antiproliferative activity against human TMD8 cells assessed as inhibition of cell viability measured after 72 hrs by MTT assay; assay type: functional, cell-based; details: TMD8, 72 h
[9] = Clearance in Sprague-Dawley rat at 10 mg/kg, iv measured upto 24 hrs by LC/MS/MS analysis; assay type: ADME, organism-based; details: in vivo

- IC50 (THP-1): 2370 nM
- inhibition [3]: 75%
- IC50 (Jurkat): 570 nM
- IC50 [5]: > 20000 nM
- IC50 (HCT-116): 720 nM
- clearance [9]: 123 mL/min/kg
SMILES: CN1CCC(Nc2nc(-c3ccnc(F)c3)nc3c2ccn3CCCN2CCCC2)CC1
- Activity (TMD8 [1]): 47.5%
- Activity (TMD8 [2]): 17%
- Activity [4]: 65.7%
- IC50 (U2932): 540 nM
- Activity (DOHH-2): 24%
- Activity (TMD8 [6]): Dose-dependent-effect
- Activity [7]: Non-toxic
- IC50 (TMD8 [8]): 500 nM

Source: ChEMBL document CHEMBL6153174, “Design and Synthesis of Novel Deazapurine DNMT 1 Inhibitors with In Vivo Efficacy in DLBCL” (J Med Chem, 2025)
